Test results from PubChem BioAssay AID330 (DTP/NCI, 2004).
“And” between values parts separate entries of the source, which are not always exact repeats. Identical values can stand only once. Toxic doses and inconclusive results are not listed.

System: P388 leukemia ip, CD2F1 mice, survival T/C
Assay: NCI In Vivo Anticancer Drug Screen. Data for tumor model P388 Leukemia (intraperitoneal) in CD2F1 (CDF1) mice
Details: endpoint: median survival time, higher = longer survival
Procedure, shortened: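 Mice carrying the transplanted tumor received test compound or vehicle. Survival was recorded in each group, and the value is the treated-group measurement divided by that of the vehicle-treated control group.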

[1] = dose: 12.5 mg/kg/injection, schedule: Q01DX009 (ip), vehicle: other
[2] = dose: 100.0 mg/kg/injection, schedule: Q01DX009 (ip), vehicle: other
[3] = dose: 50.0 mg/kg/injection, schedule: Q01DX009 (ip), vehicle: saline with Tween-80
[4] = dose: 100.0 mg/kg/injection, schedule: Q01DX009 (ip), vehicle: saline with Tween-80
[5] = dose: 200.0 mg/kg/injection, schedule: Q01DX009 (ip), vehicle: saline with Tween-80
[6] = dose: 50.0 mg/kg/injection, schedule: Q01DX009 (ip), vehicle: saline
[7] = dose: 100.0 mg/kg/injection, schedule: Q01DX009 (ip), vehicle: saline
[8] = dose: 200.0 mg/kg/injection, schedule: Q01DX009 (ip), vehicle: saline
[9] = dose: 60.0 mg/kg/injection, schedule: Q01DX005 (ip), vehicle: saline with Tween-80
[10] = dose: 120.0 mg/kg/injection, schedule: Q01DX005 (ip), vehicle: saline with Tween-80
[11] = dose: 240.0 mg/kg/injection, schedule: Q01DX005 (ip), vehicle: saline with Tween-80

COc1ccc(/C=C2\N=C(c3ccccc3)OC2=O)c(OCc2ccccc2)c1
T/C [1]: 88 % of control | T/C (dose: 25.0 mg/kg/injection, schedule: Q01DX009 (ip), vehicle: other): 89 % of control | T/C [2]: 88 % of control | T/C (dose: 200.0 mg/kg/injection, schedule: Q01DX009 (ip), vehicle: other): 94 % of control

O=C1CC(SC(=S)N2CCOCC2)C(=O)N1 (stereo not drawn)
T/C (dose: 100.0 mg/kg/injection, schedule: Q04DX002 (ip), vehicle: saline): 99 % of control and 103 % of control | T/C (dose: 200.0 mg/kg/injection, schedule: Q04DX002 (ip), vehicle: saline): 99 % of control and 97 % of control | T/C (dose: 400.0 mg/kg/injection, schedule: Q04DX002 (ip), vehicle: saline): 100 % of control and 109 % of control

NC(CC(C(=O)O)c1ccccc1)C(=O)O (stereo not drawn)
T/C [3]: 106 % of control | T/C [4]: 94 % of control | T/C [5]: 94 % of control

CC(C)=CC1C(C(=O)OC23C=CC(CC2C)C3)C1(C)C (stereo not drawn)
T/C [6]: 104 % of control | T/C [7]: 98 % of control | T/C [8]: 102 % of control

O=C(O)CCc1cc(Br)no1
T/C [6]: 101 % of control | T/C [7]: 93 % of control | T/C [8]: 93 % of control

Cc1[nH]c2ccc(N(C)C)cc2c(=O)c1CN(Cc1ccccc1)Cc1c(C)[nH]c2ccc(N(C)C)cc2c1=O
T/C (dose: 7.5 mg/kg/injection, schedule: Q01DX005 (ip), vehicle: Klucel (hydroxypropylcellulose) (HPC)): 94 % of control | T/C (dose: 15.0 mg/kg/injection, schedule: Q01DX005 (ip), vehicle: Klucel (hydroxypropylcellulose) (HPC)): 89 % of control | T/C (dose: 30.0 mg/kg/injection, schedule: Q01DX005 (ip), vehicle: Klucel (hydroxypropylcellulose) (HPC)): 86 % of control

O=[N+]([O-])c1ccccc1N(CCO)CCO
T/C [9]: 96 % of control | T/C [10]: 99 % of control | T/C [11]: 98 % of control

CC(=O)NS(=O)(=O)c1ccc(NCc2c3ccccc3nc3cc(Cl)ccc23)cc1
T/C [9]: 114 % of control | T/C [10]: 102 % of control | T/C [11]: 105 % of control

CN1c2ccccc2C2CCCCC21 (stereo not drawn)
T/C (dose: 50.0 mg/kg/injection, schedule: Q01DX005 (ip), vehicle: saline with Tween-80): 100 % of control | T/C (dose: 100.0 mg/kg/injection, schedule: Q01DX005 (ip), vehicle: saline with Tween-80): 99 % of control | T/C (dose: 200.0 mg/kg/injection, schedule: Q01DX005 (ip), vehicle: saline with Tween-80): 111 % of control

Cc1cc([N+](=O)[O-])c(C)c(Br)c1C
T/C [3]: 90 % of control | T/C [4]: 92 % of control | T/C [5]: 99 % of control

O=C(O)/C=N/NS(=O)(=O)c1ccc(Cl)cc1
T/C (dose: 6.25 mg/kg/injection, schedule: Q01DX009 (ip), vehicle: other): 101 % of control | T/C [1]: 122 % of control | T/C (dose: 50.0 mg/kg/injection, schedule: Q01DX009 (ip), vehicle: other): 159 % of control | T/C [2]: 99 % of control

C=C(C)C(=O)OC1CC2=CC(CC3(C)OC3C3OC(=O)C(=C)C13)OC2=O (stereo not drawn)
T/C (dose: 2.25 mg/kg/injection, schedule: Q01DX009 (ip), vehicle: Klucel (hydroxypropylcellulose) (HPC)): 100 % of control | T/C (dose: 2.3 mg/kg/injection, schedule: Q01DX009 (ip), vehicle: Klucel (hydroxypropylcellulose) (HPC)): 103 % of control | T/C (dose: 4.5 mg/kg/injection, schedule: Q01DX009 (ip), vehicle: Klucel (hydroxypropylcellulose) (HPC)): 100 % of control and 97 % of control | T/C (dose: 9.0 mg/kg/injection, schedule: Q01DX009 (ip), vehicle: Klucel (hydroxypropylcellulose) (HPC)): 100 % of control and 111 % of control | T/C (dose: 18.0 mg/kg/injection, schedule: Q01DX009 (ip), vehicle: Klucel (hydroxypropylcellulose) (HPC)): 114 % of control and 115 % of control

O=C1C=C2OCOC2=C/C1=C/C=C/c1ccccc1
T/C (dose: 2.5 mg/kg/injection, schedule: Q01DX009 (ip), vehicle: saline with Tween-80): 102 % of control | T/C (dose: 5.0 mg/kg/injection, schedule: Q01DX009 (ip), vehicle: saline with Tween-80): 101 % of control | T/C (dose: 10.0 mg/kg/injection, schedule: Q01DX009 (ip), vehicle: saline with Tween-80): 103 % of control
